Experimental data reported in patent US20090176773A1, “Non-Peptidic Inhibitors of AKAP/PKA Interaction” (FORSCHUNGSVERBUND BERLIN E.V., priority 2005, published 2009).
Entries after “also recorded” stand apart in the source; their conditions may differ.

What follows are molecules tested against T1, AKAP18delta-RIIalpha interaction (GST-AKAP18delta binding to plate-bound PKA-RIIalpha) (UniProt P13861+Q6JP77) (assay: ELISA for quantitative detection of protein-protein binding between PKA-RIIalpha and GST-AKAP18delta (library screening, validation, IC50)). Details: increasing peptide concentrations, FIG. 11.
T1 construct: made in house; host or cells: E. coli BL21(DE3), pGEX-4T3 vector (GST-AKAP18delta only)
T1 sequence (Q6JP77 whole entry): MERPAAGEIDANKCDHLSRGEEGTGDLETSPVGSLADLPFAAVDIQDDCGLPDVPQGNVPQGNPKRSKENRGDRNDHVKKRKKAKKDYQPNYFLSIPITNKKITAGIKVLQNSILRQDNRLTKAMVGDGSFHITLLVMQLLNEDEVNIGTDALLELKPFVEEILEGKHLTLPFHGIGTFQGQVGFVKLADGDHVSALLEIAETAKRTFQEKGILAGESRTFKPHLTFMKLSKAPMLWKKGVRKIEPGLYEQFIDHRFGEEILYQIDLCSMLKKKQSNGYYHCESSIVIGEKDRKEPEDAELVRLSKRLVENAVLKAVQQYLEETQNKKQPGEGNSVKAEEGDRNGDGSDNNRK
T1 sequence (P13861 whole entry): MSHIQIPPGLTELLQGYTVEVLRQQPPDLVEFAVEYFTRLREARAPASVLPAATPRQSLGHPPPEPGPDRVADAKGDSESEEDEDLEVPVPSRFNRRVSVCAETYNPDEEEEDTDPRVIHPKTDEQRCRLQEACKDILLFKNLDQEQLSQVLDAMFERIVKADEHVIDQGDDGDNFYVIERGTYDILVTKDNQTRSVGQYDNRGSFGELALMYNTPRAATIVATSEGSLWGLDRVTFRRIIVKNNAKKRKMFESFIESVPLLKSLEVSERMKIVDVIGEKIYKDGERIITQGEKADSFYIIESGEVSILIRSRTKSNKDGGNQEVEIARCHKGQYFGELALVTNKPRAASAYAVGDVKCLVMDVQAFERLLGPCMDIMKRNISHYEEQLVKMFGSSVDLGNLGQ
Description: (§1) ELISA is a method wherein an antigen is detected with a specific antibody. Detection proceeds via an enzyme linked covalently with one of the binding partners, which enzyme catalyzes chromogen conversion.
(§2) Because one of the two binding partners is immobilized, removal of unbound antibodies or antigens is very easy. Detection proceeds via observing the intensity (I) of chemiluminescence using a photomultiplier in a special reading device (ELISA reader). The output of the measured values is in relative light units (RLU).
(§3) In the present case, the point was to investigate whether binding of one protein (PKA) to another (AKAP18delta-GST) would be inhibited by the presence of small organic molecules. A sandwich ELISA was therefore developed wherein the RIIalpha PKA subunit, to which AKAP proteins bind, was bound on 384-well microtiter plates (MTP).
(§4) The white color improves detection by reflection of the chemiluminescence being formed and simultaneously prevents illumination of neighboring wells. Free binding sites were blocked after binding (see below), and the second GST-AKAP18delta protein was added to […]. Subsequently, bound GST-AKAP18delta was quantified via antibodies and chemiluminescence. The principle of ELISA is illustrated in FIG. 4.
(§5) PBS (phosphate-buffered saline, pH 7.4) was used as buffer system to maintain a physiological pH value for the proteins used. The buffer was added with a mix of protease inhibitors and PMSF as non-specific protease inhibitor to delay protein degradation. In addition, DTT was employed to protect the proteins from oxidation.
(§6) The blocking solution additionally included 0.3% skim milk powder to saturate MTP non-specific binding sites with milk proteins included therein.
(§7) To adapt the binding curves to the measured values (see results), the one-site binding model was used as a basis, which model applies to binding of GST-AKAP18delta to RIIalpha. The corresponding formula is
(§8) The measured values for IC50 calculation were adapted to the one-site competition model. It was established that the bottom asymptote should be greater than 0.0 to rule out faulty adaptations with negative binding values. The formula used is
(§9) The FMP20000 substance library was used for screening, i.e., systematic, partially automated search for potential inhibitors of AKAP18delta-RIIalpha binding. […] The substances of the library had been selected according to specific criteria which also apply to previously known pharmacological active substances. Said criteria also include Lipinski's Rule (cf. discussion). To prepare an MTP for screening, each of 380 wells was filled with 20 μl of RIIalpha solution with a concentration of 0.75 ng/μl (in binding buffer), using an electronically controlled 24-channel pipette (Eppendorf). […] Following centrifugation of the MTPs (1 min at 2500×g), the MTPs were incubated at room temperature for at least 1 h. After removing the protein solution by tapping on a paper stack, non-specific binding sites were blocked with 100 μl of blocking solution/well for at least 1 h at room temperature.
(§10) After completion of the washing operation, solution residues possibly still present were tapped off on a paper stack.
(§11) In the next step, the MTPs were prepared for automated pipetting of the low-molecular weight substances. Each well was supplied with 10 μl of blocking solution or controls pipetted in accordance with the pipetting scheme (Table 1.2). […] The plates were briefly centrifuged.
(§12) Each of the control columns 1 and 24 received 0.5 μl of DMSO, so that the controls were added with the same amount of DMSO as the other samples.
(§13) Following centrifugation of the screening MTPs, AKAP18delta-GST (8 ng/μl in blocking solution) was added in accordance with the pipetting scheme (Table 2.2), centrifuged, and incubated for at least 30 min at room temperature.
With `CC(C)C[C@H](NC(=O)[C@H](CCCNC(=N)N)NC(=O)[C@@H](NC(=O)[C@H](CC(C)C)NC(=O)[C@H](CCC(=O)O)NC(=O)[C@H](C)NC(=O)[C@H](CC(=O)O)NC(=O)[C@H](CCC(=O)O)NC(=O)[C@@H]1CCCN1)C(C)C)C(=O)N[C@@H](CO)C(=O)N[C@@H](CCCCN)C(=O)N[C@@H](CCCNC(=N)N)C(=O)N[C@@H](CC(C)C)C(=O)N[C@H](C(=O)N[C@@H](CCC(=O)O)C(=O)N[C@@H](CC(N)=O)C(=O)N[C@@H](C)C(=O)N[C@H](C(=O)N[C@@H](CCC(=O)O)C(=O)N[C@@H](CCCCN)C(=O)N[C@@H](C)C(=O)N[C@H](C(=O)N[C@@H](CCC(N)=O)C(=O)N[C@@H](CCC(N)=O)C(=O)N[C@@H](Cc1ccc(O)cc1)C(N)=O)C(C)C)C(C)C)C(C)C` [Compound L314E, reference compound] the “Inhibition of GST-AKAP18delta binding to RIIalpha by peptides” value was “stronger inhibition of binding; also recorded: competitive inhibition of binding”.

What follows are molecules tested against AKAP18delta-RIIalpha interaction (GST-AKAP18delta binding to plate-bound PKA-RIIalpha) (Rattus norvegicus, UniProt P12368+Q6JP77) in the same assay as above. Details: not given.
AKAP18delta-RIIalpha interaction (GST-AKAP18delta binding to plate-bound PKA-RIIalpha) (Rattus norvegicus, UniProt P12368+Q6JP77), sequence (P12368 2-401): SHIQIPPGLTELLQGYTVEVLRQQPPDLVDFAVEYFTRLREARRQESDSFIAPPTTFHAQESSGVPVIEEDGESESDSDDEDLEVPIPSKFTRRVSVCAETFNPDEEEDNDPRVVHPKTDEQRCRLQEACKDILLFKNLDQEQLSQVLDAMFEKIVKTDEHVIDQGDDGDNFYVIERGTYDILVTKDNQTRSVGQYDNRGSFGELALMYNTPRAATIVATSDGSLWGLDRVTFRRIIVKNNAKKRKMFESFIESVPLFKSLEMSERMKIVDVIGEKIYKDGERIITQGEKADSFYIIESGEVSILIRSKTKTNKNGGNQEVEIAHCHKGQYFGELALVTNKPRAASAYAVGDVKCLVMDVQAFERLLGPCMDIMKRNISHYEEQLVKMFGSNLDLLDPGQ
AKAP18delta-RIIalpha interaction (GST-AKAP18delta binding to plate-bound PKA-RIIalpha) (Rattus norvegicus, UniProt P12368+Q6JP77), sequence (Q6JP77 whole entry): as the sequence (Q6JP77 whole entry) above
Description: as §1, §2, §3, §4, §5, §6, §7, §8, §9, §10, §11, §12, §13
For `CC(C)/N=C(\NCc1cccc2ccccc12)SCc1cccc2ccccc12` [JG26], the “Ratio IC50 (comp./990) in Screening no. 3” value was 0.87. `c1ccc(C/N=C(\NCc2cccc3ccccc23)SCc2cccc3ccccc23)cc1` [JG28] was tested, and the “Ratio IC50 (comp./990) in Screening no. 3” value was 0.39. `CC(C)(C)/N=C(\NCc1cccc2ccccc12)SCc1cccc2ccccc12` [JG27] was tested, and the “Ratio IC50 (comp./990) in Screening no. 3” value was 1.03. With `S=C(NCCN1CCCCC1)NCc1cccc2ccccc12` [SM56] the “Ratio IC50 (comp./990) in Screening no. 2” value was 592.04. In the case of `S=C(NCCN1CCCCC1)Nc1cccc2ccccc12` [SM52], the “Ratio IC50 (comp./990) in Screening no. 2” value is reported as 962.65. `CCNC(=N)SCc1cccc2ccccc12` [SM54] was tested, and the “Ratio IC50 (comp./990) in Screening no. 2” value was 6.43. `c1ccc2c(CN/C(=N\C3CCCCC3)SCc3cccc4ccccc34)cccc2c1` [JG25] was tested, and the “Ratio IC50 (comp./990) in Screening no. 3” value was 0.26. `CNC(=S)NCc1cccc2ccccc12` [SM57] was tested, and the “Ratio IC50 (comp./990) in Screening no. 2” value was 4.16. `CC(C)(C)/N=C(\NC1=NCCS1)SCc1cccc2ccccc12` [JG21] was tested, and the “Ratio IC50 (comp./990) in Screening no. 3” value was 1.97. For `S=C(NCc1cccc2ccccc12)NC1CCCCC1` [SM59], the “Ratio IC50 (comp./990) in Screening no. 2” value was 343.88. In the case of `C/N=C(/NC(C)c1ccccc1)SCc1cccc2ccccc12` (centres unmarked) [SM69], the “Ratio IC50 (comp./990) in Screening no. 2” value is reported as 1.76. For `C/N=C(/NCc1ccccc1)SCc1cccc2ccccc12` [SM71], the “Ratio IC50 (comp./990) in Screening no. 2” value was 0.41 and the “Ratio IC50 (comp./990) in Screening no. 3” value was 0.45. In the case of `CC(C)(C)/N=C(\NCc1ccccc1)SCc1cccc2ccccc12` [JG20], the “Ratio IC50 (comp./990) in Screening no. 3” value is reported as 0.74. `c1ccc2c(C/N=C(\NC3CCCCC3)SCc3cccc4ccccc34)cccc2c1` [SM63] was tested, and the “Ratio IC50 (comp./990) in Screening no. 2” value was 0.55 and the “Ratio IC50 (comp./990) in Screening no. 3” value was 1.13. With `C/N=C(/NCCCc1ccccc1)SCc1ccc2ccccc2c1` [SM68] the “Ratio IC50 (comp./990) in Screening no. 2” value was 86.51. In the case of `CN/C(=N\Cc1cccc2ccccc12)SCc1cccc2ccccc12` [SM61], the “Ratio IC50 (comp./990) in Screening no. 2” value is reported as 0.16 and the “Ratio IC50 (comp./990) in Screening no. 3” value is reported as 0.32. With `C/N=C(/NCc1ccccc1)SCc1ccc2ccccc2c1` [SM72] the “Ratio IC50 (comp./990) in Screening no. 2” value was 55.39. With `N=C(NN)SCc1cccc2ccccc12` [SM55] the “Ratio IC50 (comp./990) in Screening no. 2” value was 2.45. `N=C(N)NCc1cccc2ccccc12` [SM51] was tested, and the “Ratio IC50 (comp./990) in Screening no. 2” value was 88.35. `C/N=C(/NC1=NCCS1)SCc1cccc2ccccc12` [SM65] was tested, and the “Ratio IC50 (comp./990) in Screening no. 2” value was 0.14 and the “Ratio IC50 (comp./990) in Screening no. 3” value was 0.39. In the case of `C/N=C(/NCCCc1ccccc1)SCc1cccc2ccccc12` [SM67], the “Ratio IC50 (comp./990) in Screening no. 2” value is reported as 0.51 and the “Ratio IC50 (comp./990) in Screening no. 3” value is reported as 1.10. For `C/N=C(/NC1=NCCS1)SCc1ccc2ccccc2c1` [SM66], the “Ratio IC50 (comp./990) in Screening no. 2” value was 30.29. For `CN/C(=N\c1cccc2cc3ccccc3cc12)SCc1cccc2ccccc12` [JG31], the “Ratio IC50 (comp./990) in Screening no. 3” value was 8.29. In the case of `C/N=C(/NC)SCc1cccc2ccccc12` [SM25], the “Ratio IC50 (comp./990) in Screening no. 1” value is reported as 0.97, the “Ratio IC50 (comp./990) in Screening no. 2” value is reported as 1.55 and the “Ratio IC50 (comp./990) in Screening no. 3” value is reported as 0.68. In the case of `C/N=C(/NC(C)c1ccccc1)SCc1ccc2ccccc2c1` (centres unmarked) [SM70], the “Ratio IC50 (comp./990) in Screening no. 2” value is reported as 79.84. With `N=C(NCc1ccccc1)SCc1cccc2ccccc12` [SM53] the “Ratio IC50 (comp./990) in Screening no. 2” value was 3.20 and the “Ratio IC50 (comp./990) in Screening no. 3” value was 1.13.

Same assay, conditions: Table C; screening no. 2; relative to substance 990
In the case of `CCNC(=S)NCc1cccc2ccccc12` [SM58], the “Ratio IC50 (comp./990) in Screening no. 2” value is reported as 986.12.

Same assay, conditions: Table C; screening no. 3
In the case of `C/N=C(\NCc1cccc2ccccc12)SCc1cccc2ccccc12` [JG23], the “IC50 in Screening no. 3” value is reported as “bad”.

Same assay, conditions: validation, FIG. 15, 50 nM GST-AKAP18delta
`CC(C)C[C@H](NC(=O)[C@H](CCCNC(=N)N)NC(=O)[C@@H](NC(=O)[C@H](CC(C)C)NC(=O)[C@H](CCC(=O)O)NC(=O)[C@H](C)NC(=O)[C@H](CC(=O)O)NC(=O)[C@H](CCC(=O)O)NC(=O)[C@@H]1CCCN1)C(C)C)C(=O)N[C@@H](CO)C(=O)N[C@@H](CCCCN)C(=O)N[C@@H](CCCNC(=N)N)C(=O)N[C@@H](CC(C)C)C(=O)N[C@H](C(=O)N[C@@H](CCC(=O)O)C(=O)N[C@@H](CC(N)=O)C(=O)N[C@@H](C)C(=O)N[C@H](C(=O)N[C@@H](CCC(=O)O)C(=O)N[C@@H](CCCCN)C(=O)N[C@@H](C)C(=O)N[C@H](C(=O)N[C@@H](CCC(N)=O)C(=O)N[C@@H](CCC(N)=O)C(=O)N[C@@H](Cc1ccc(O)cc1)C(N)=O)C(C)C)C(C)C)C(C)C` [Compound L314E, reference compound] was tested, and the “Concentration dependence of the inhibitory effect in validation (dilution series)” value was “inhibition of binding in a concentration-dependent fashion”. With `COc1ccc(CSC(=N)N)cc1Br` [Compound 2348] the “Concentration dependence of the inhibitory effect in validation (dilution series)” value was “non-active”.

The molecules below were run on vasopressin (AVP)-dependent redistribution of the aquaporin-2 (AQP2) water channel in renal principal cells (IMCD cells) (assay: AVP-induced redistribution of AQP2 in primarily cultured IMCD cells (immunofluorescence, laser scanning microscope)). Details: FIG. 18 and 21.
Type: cell-based, rat
Protocol: Initially, collecting duct cells from the inner medulla of rat kidneys (IMCD cells) can be stimulated with AVP in the presence or absence of the substances so as to stimulate AQP2 translocation. Thereafter, immunofluorescence staining can be performed, wherein the cells—following incubation—are fixed and made permeable. Using antibodies coupled to fluorescent dyes, the intracellular localization of AQP2 can subsequently be determined under a fluorescence microscope. In this way it is possible to investigate the influence of the substances on the presumably AKAP18delta-dependent translocation of AQP2.
Inhibition of the vasopressin (AVP)-dependent redistribution of the aquaporin-2 (AQP2) water channel in renal principal cells by the substances specified (see Table B; concentrations of inhibitors in μM). Primarily cultured principal cells from the inner medulla of rat kidneys (IMCD cells) represent a model for the AVP-induced translocation of AQP2. Said redistribution is the molecular basis of AVP-induced water reabsorption in the kidneys. AQP2 was detected by means of a specific antiserum and Cy3-labelled secondary antibodies in untreated cells (control) and in cells treated with AVP or substances, using a laser scanning microscope (Tamma et al., 2003; Henn et al., 2004).
Effect of the low-molecular weight substances 18882, 990 and 990 derivatives SM61 and SM65 on AVP-induced redistribution of AQP2 in IMCD cells (see FIG. 18). The structures and chemical properties of the substances are illustrated in Tables A, B and C (concentrations of inhibitors in μM). AQP2 was detected by means of a specific antiserum and Cy3-labelled secondary antibodies in untreated cells (control) and in cells treated with AVP or substances, using a laser scanning microscope (Tamma et al., 2003; Henn et al., 2004). […] In contrast, the substances 18882 and the 990 derivative SM65 have no influence on AVP-induced AQP2 redistribution at the concentrations used.
`CN/C(=N\Cc1cccc2ccccc12)SCc1cccc2ccccc12` [SM61] was tested, and the “Effect on AVP-induced redistribution of AQP2” value was “inhibits the AVP-induced redistribution of AQP2”. With `C/N=C(/NC1=NCCS1)SCc1cccc2ccccc12` [SM65] the “Effect on AVP-induced redistribution of AQP2” value was “no influence”.
